Paper PMC4001449, “Thienoquinolines as Novel Disruptors of the PKCε/RACK2 Protein–Protein Interaction” (Journal of Medicinal Chemistry, 2014)

Assays:
[1] = biological target: T1, PKCε/RACK2 interaction (Homo sapiens, UniProt P35606); assay: PKCε/RACK2 in vitro binding assay (ELISA-based); conditions: 25 μM solution, Figure 2A
T1 sequence (P35606 1-906): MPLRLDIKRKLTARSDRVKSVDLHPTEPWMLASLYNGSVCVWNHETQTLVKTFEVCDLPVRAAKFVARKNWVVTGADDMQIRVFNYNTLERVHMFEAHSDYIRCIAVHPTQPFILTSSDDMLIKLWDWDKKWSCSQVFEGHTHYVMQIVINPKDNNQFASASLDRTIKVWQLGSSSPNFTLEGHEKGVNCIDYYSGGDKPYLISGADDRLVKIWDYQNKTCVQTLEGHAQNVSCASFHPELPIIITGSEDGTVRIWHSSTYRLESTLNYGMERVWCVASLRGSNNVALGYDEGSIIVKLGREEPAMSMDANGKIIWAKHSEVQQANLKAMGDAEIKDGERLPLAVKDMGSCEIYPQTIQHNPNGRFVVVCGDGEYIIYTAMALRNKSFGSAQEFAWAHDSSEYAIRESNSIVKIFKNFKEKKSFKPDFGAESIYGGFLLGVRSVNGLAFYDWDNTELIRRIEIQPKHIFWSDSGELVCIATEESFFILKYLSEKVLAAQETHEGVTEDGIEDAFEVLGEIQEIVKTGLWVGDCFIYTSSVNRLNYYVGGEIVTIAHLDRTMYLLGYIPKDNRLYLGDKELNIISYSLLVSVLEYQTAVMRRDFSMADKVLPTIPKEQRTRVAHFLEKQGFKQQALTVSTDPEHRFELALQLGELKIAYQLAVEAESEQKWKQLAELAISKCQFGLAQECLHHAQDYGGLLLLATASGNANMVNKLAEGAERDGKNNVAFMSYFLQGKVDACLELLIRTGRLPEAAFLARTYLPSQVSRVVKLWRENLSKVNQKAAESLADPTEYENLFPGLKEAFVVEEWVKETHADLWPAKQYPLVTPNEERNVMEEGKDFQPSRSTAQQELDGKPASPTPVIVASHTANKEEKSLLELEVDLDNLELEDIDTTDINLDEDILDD
Experimental: Recombinant RACK2 tagged with maltose-binding protein (RACK2-MBP) was purified on columns with amylose resin (New England Biolabs, Ipswich, MA) as described by the manufacturer. The recombinant protein was analyzed by Coomassie Blue staining and Western blotting after SDS–PAGE. Aliquots were stored in liquid nitrogen. The interaction between PKCε and RACK2 was measured using an ELISA-based assay. The 96-well EIA/RIA high binding plates (Costar) were coated with 100 ng of recombinant PKCε (ProQinase, Freiburg, Germany) in buffer A (20 mM Tris-HCl/100 mM NaCl, pH 7.5) at 4 °C on a shaker with gentle agitation overnight. The plate was washed twice with 225 μL/well buffer A. After blocking of unspecific binding sites with 225 μL of sterile-filtered 3% bovine serum albumin (BSA; Sigma-Aldrich, St. Louis, MO) in buffer A at room temperature for 3 h, the plate was washed twice with 225 μL of this buffer. PKCε was left untreated or activated by addition of 60 μg/mL phosphatidylserine (Sigma-Aldrich) and 100 nM TPA (Sigma-Aldrich) in a volume of 50 μL of buffer A for 10 min at 30 °C. […] Color development was measured on a plate reader at a wavelength of 420 nm.

[2] = system: PKCε; assay: PKCε translocation by immunofluorescence in PC-3 cells; assay type: cell-based, human; conditions: Figure 4
Experimental: PC-3 cells were grown on glass coverslips coated with poly-L-lysine (Sigma-Aldrich). After treatment with 8 for 30 min and with 100 nM TPA for 5 min, the cells were rinsed twice with phosphate buffered saline (PBS) and fixed with filter sterilized 4% (w/v) paraformaldehyde/4% sucrose (w/v) (both from Sigma-Aldrich) in PBS at room temperature for 10 min. Subsequently the cells were washed three times with PBS and permeabilized with 0.2% Triton X-100/0.2% IgG-free BSA in PBS at room temperature for 10 min. After blocking with 5% normal goat serum diluted in PBS as described above for 30 min, cells were incubated with the primary antibodies for PKCε (Santa Cruz; diluted 1:500) in 0.2% Triton X-100/0.2% IgG-free BSA in PBS at 4 °C overnight. Subsequently, the cells were washed three times with the same buffer and incubated with the labeled secondary antibody (Alexa Fluor, Invitrogen, Life Technologies, Carlsbad, CA; 1:4000) at room temperature for 1 h. After three more washes with 0.2% Triton X-100/0.2% IgG-free BSA in PBS, cells were mounted with Mowiol (Sigma-Aldrich) and images were taken with an Olympus BX 50 optical microscope (Olympus Corporation, Tokyo, Japan).

[3] = system: HeLa-HLR cells; assay: Cell proliferation (SRB assay), HeLa-HLR; assay type: cell-based; conditions: 50 μM, 72 h
Experimental: HeLa cells containing a tetracycline/doxycycline-inducible constitutively active PKCε were described previously.[26] A PathDetect HeLa HLR cell line was obtained from Agilent, Technologies, Wokingham, U.K. PC-3 prostate adenocarcinoma cells were obtained from Dr. Helmut Klocker, Department of Urology, Innsbruck Medical University. For cell proliferation HeLa HLR and PC-3 cells were seeded at ∼10 000 cells per well in 96-well plates. After 4 h various concentrations of 8 were added and left for 72 h. Cell proliferation was determined by the SRB assay.[35]

[4] = biological target: ERK1 (Homo sapiens, UniProt P27361); assay: Kinase profiling (Dundee), ERK1; assay type: biochemical; conditions: 25 μM solution
Sequence of ERK1 (P27361 whole entry, species assumed): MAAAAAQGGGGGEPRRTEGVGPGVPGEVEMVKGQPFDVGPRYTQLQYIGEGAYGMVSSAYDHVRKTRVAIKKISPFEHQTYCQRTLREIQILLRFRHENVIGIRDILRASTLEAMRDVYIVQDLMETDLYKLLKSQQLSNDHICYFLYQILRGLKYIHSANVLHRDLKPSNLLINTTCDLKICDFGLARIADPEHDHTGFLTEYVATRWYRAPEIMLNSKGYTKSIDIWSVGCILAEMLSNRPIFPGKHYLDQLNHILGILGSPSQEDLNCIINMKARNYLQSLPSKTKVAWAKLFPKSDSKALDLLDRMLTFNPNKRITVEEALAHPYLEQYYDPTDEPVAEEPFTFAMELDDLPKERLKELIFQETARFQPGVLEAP

For CC(=O)c1cccc(NC(=O)c2sc3nc4cc5c(cc4cc3c2N)OCCO5)c1 [Compound 8, N-(3-acetylphenyl)-9-amino-2,3-dihydro-1,4-dioxino[2,3-g]thieno[2,3-b]quinoline-8-carboxamide], the “PKCε/RACK2 interaction, % of untreated controls” value [1] was “approximately 10 % of untreated controls”, the “TPA-induced PKCε translocation to the plasma membrane (immunocytochemistry)” value [2] was “prevented” and the “Inhibition of cell proliferation” value [3] was “did not show any inhibition”. The “ERK1 activity, % of control” value [4] was 55 % of control.
